These results are taken from patent US5043349A, “Substituted pyrrole angiotensin II antagonists” (E. I. Du Pont de Nemours and Company, priority 1990, dated 1991).

A word on the IC50: it is the concentration at which inhibition is half-maximal. High values mean lower potency, low ones higher potency.

One data set has as its target AII receptor. Nature of the data set: Angiotensin II receptor binding (displacement of 3H-AII from rat adrenal cortical microsomes). Conditions: 50% displacement of specifically bound 3H-AII (2 nM), 1 hour, room temperature. As to the method: The hormone angiotensin II (AII) produces numerous biological responses (e.g. vasoconstriction) through stimulation of its receptors on cell membranes. […] The reaction mixture contained rat adrenal cortical microsomes (source of AII receptor) in Tris buffer and 2 nM of ^3 H-AII with or without potential AII antagonist. This mixture was incubated for 1 hour at room temperature and the reaction was subsequently terminated by rapid filtration and rinsing through glass micro-fibre filter. Receptor-bound ^3 H-AII trapped in filter was quantitated by scintillation counting.
(In general: Displacement assays read how much labelled ligand stays bound in the presence of the test substance.)

In a further data set the test system is Renal Hypertensive Rats. The data set can be described thus: Antihypertensive effects in renal hypertensive rats (ligation of the left renal artery). To be noted: Rattus norvegicus. Format: in vivo. As to the method:
This procedure increases blood pressure by increasing renin production with consequent elevation of AII levels. Compounds are administered orally and/or intravenously via a cannula in the jugular vein. Arterial blood pressure is continuously measured directly through a carotid artery cannula and recorded using a pressure transducer and a polygraph. Blood pressure levels after treatment are compared to pretreatment levels to determine the antihypertensive effects of the compounds (See Table 5).

In a further data set the test system is AII. To be noted: cited from earlier work.
A further data set relates to arterial pressure. Conditions: cited from earlier work.
Setting [1] is: iv, read-out: Antihypertensive Effects in Renal Hypertensive Rats, Intravenous Activity.
The mark [2] stands for this setting: po, read-out: Antihypertensive Effects in Renal Hypertensive Rats, Oral Activity.

The structures appear in SMILES notation. Where two headings read alike, the source gives them in different places. A value given as a limit tells only on which side of the number the result lay.

The molecule `CCCCc1cc(COC)nn1Cc1ccc(-c2ccccc2C(=O)O)cc1` [Example 171, 3-Methoxymethyl-5-butyl-1-[(2'-carboxybiphenyl-4-yl)methyl]pyrazole] returned an IC50 on AII receptor of 290 nM. Besides, the minimal effective dose was not above 10 mg/kg with Renal Hypertensive Rats (setting [1]) and not above 100 mg/kg in the data set on Renal Hypertensive Rats (setting [2]).
With `CCCc1cc(C=O)n(Cc2ccc(-c3ccccc3C(=O)O)cc2)n1` [Example 179, 5-Formyl-3-propyl-1-[(2'-carboxybiphenyl-4-yl)methyl]pyrazole], on AII receptor, the half-maximal inhibitory concentration (IC50) was more than 3000 nM. For the same molecule, the minimal effective dose with Renal Hypertensive Rats (setting [1]) and in the data set with Renal Hypertensive Rats (setting [2]) was more than 30 mg/kg each time.
`CCCc1cc(CO)nn1Cc1ccc(-c2ccccc2C(=O)O)cc1` [Example 176, 3-Hydroxymethyl-5-propyl-1-[(2'-carboxybiphenyl-4-yl)methyl]pyrazole] gave an IC50 at AII receptor of 2300 nM. Also, the minimal effective dose in the data set on Renal Hypertensive Rats (setting [1]) and in the data set on Renal Hypertensive Rats (setting [2]) was more than 30 mg/kg throughout.
On AII receptor, `CCCCc1cn(Cc2ccc(-c3ccccc3C(=O)O)cc2)nn1` [Example 1, 4-Butyl-1-[(2'-carboxybiphenyl-4-yl)methyl]-1,2,3-triazole] registered an IC50 of 3000 nM. In addition, the minimal effective dose in the data set with Renal Hypertensive Rats (setting [1]) and in the data set with Renal Hypertensive Rats (setting [2]) was more than 100 mg/kg in each case.
`CCCc1ccc(C(=O)OCC)n1Cc1ccc(-c2ccccc2-c2nnn[nH]2)cc1` [Example 277, Ethyl 5-n-propyl-1-[2'-(1H-tetrazol-5-yl)biphenyl-4-yl-methyl]pyrrole-2-carboxylate] returned a half-maximal inhibitory concentration (IC50) at AII receptor of 1600 nM. Also, the minimal effective dose with Renal Hypertensive Rats (setting [1]) was not above 10 mg/kg; in the data set on Renal Hypertensive Rats (setting [2]) it was not above 100 mg/kg.
In the same order, the values of `CCCCc1nnc(COC)n1Cc1ccc(-c2ccccc2C(=O)O)cc1` [Example 67, 3-Butyl-5-methoxymethyl-4-[(2'-carboxybiphenyl-4-yl)methyl]-1,2,4-triazole] are 820 nM, not above 10 mg/kg and more than 100 mg/kg.
In the same order, the values of `CCCc1ccc(C(=O)O)n1Cc1ccc(-c2ccccc2C(=O)O)cc1` [Example 279, 5-n-Propyl-1-[(2'-carboxybiphenyl-4-yl)methyl]-pyrrole-2-carboxylic acid] are more than 12000 nM, not above 10 mg/kg and not above 100 mg/kg.
In the same order, the values of `CCCCc1cnnn1Cc1ccc(-c2ccccc2-c2nn[nH]n2)cc1` [Example 4] are 300 nM, not above 10 mg/kg and not above 100 mg/kg.
Regarding `CCCCc1cnnn1Cc1ccc(-c2ccccc2C(=O)O)cc1` [Example 2], the IC50 on AII receptor was 1000 nM. Besides, the minimal effective dose is not above 10 mg/kg with Renal Hypertensive Rats (setting [1]) and not above 100 mg/kg in the data set with Renal Hypertensive Rats (setting [2]).
At AII receptor, `CCCc1cc(C(=O)O)nn1Cc1ccc(-c2ccccc2C(=O)O)cc1` [Example 175, 3-Carboxy-5-propyl-1-[(2'-carboxybiphenyl-4-yl)methyl]pyrazole] displayed an IC50 of 9500 nM. Besides, the minimal effective dose in the data set with Renal Hypertensive Rats (setting [1]) was not above 10 mg/kg.
Regarding `CNCC(=O)N[C@@H](CCCN=C(N)N)C(=O)N[C@H](C(=O)N[C@@H](Cc1ccc(O)cc1)C(=O)N[C@H](C(=O)N[C@@H](Cc1cnc[nH]1)C(=O)N1CCC[C@H]1C(=O)N[C@@H](C)C(=O)O)C(C)C)C(C)C` [Saralasin, [Sar^1, Ala^8] AII], the “antagonism of the actions of AII” value in the data set on AII (pithed rats) is recorded as “one of the most potent competitive antagonists of the actions of AII”. Also, the “agonistic actions of its own” value in the data set on AII (rat, in vivo) is recorded as “possessed agonistic actions of its own”. Moreover, the “effect when the pressure is not sustained by AII” value with arterial pressure (due to its agonistic character) is listed as “generally elicits pressor effects”. The “effect on arterial pressure when the (elevated) pressure is dependent on circulating AII” value in the data set on arterial pressure (mammals and man) is “lower arterial pressure in mammals and man”. For the same molecule, in the data set on arterial pressure (oral), the “effect of oral doses” value is recorded as “ineffective”. In the data set with arterial pressure (parenteral administration), the “duration of pharmacological effects” value is given as “relatively short-lasting”.
`CCCc1cc(C=O)nn1Cc1ccc(-c2ccccc2C(=O)O)cc1` [Example 178, 3-Formyl-5-propyl-1-[(2'-carboxybiphenyl-4-yl)methyl]pyrazole] registered an IC50 on AII receptor of 4100 nM. Besides, the minimal effective dose is not above 10 mg/kg with Renal Hypertensive Rats (setting [1]) and not above 100 mg/kg in the data set on Renal Hypertensive Rats (setting [2]).
In the same order, the values of `CCCCc1nnc(CCCC)n1Cc1ccc(-c2ccccc2C(=O)O)cc1` [Example 71, 3,5-Dibutyl-4-[(2'-carboxybiphenyl-4-yl)methyl]-1,2,4-triazole] are 820 nM, not above 10 mg/kg and more than 100 mg/kg.
`CCc1nnc(COC)n1Cc1ccc(-c2ccccc2C(=O)O)cc1` [Example 70, 3-Ethyl-5-methoxymethyl-4-[(2'-carboxybiphenyl-4-yl)methyl]-1,2,4-triazole] came in with an IC50 on AII receptor of 5000 nM. Moreover, the minimal effective dose in the data set with Renal Hypertensive Rats (setting [1]) was not above 10 mg/kg; in the data set on Renal Hypertensive Rats (setting [2]), more than 100 mg/kg.
The corresponding values for `CCCc1cc(CO)n(Cc2ccc(-c3ccccc3C(=O)O)cc2)n1` [Example 177, 5-Hydroxymethyl-3-propyl-1-[(2'-carboxybiphenyl-4-yl)methyl]pyrazole] are more than 3000 nM, more than 30 mg/kg and more than 30 mg/kg.
For the molecule `CCCc1cc(COC)n(Cc2ccc(-c3ccccc3C(=O)O)cc2)n1` [Example 174], at AII receptor, the IC50 was more than 1000 nM. Further, the minimal effective dose in the data set with Renal Hypertensive Rats (setting [1]) was not above 10 mg/kg; in the data set with Renal Hypertensive Rats (setting [2]), more than 100 mg/kg.
`CCCc1ccc(C(=O)OCC)n1Cc1ccc(-c2ccccc2C(=O)O)cc1` [Example 278, Ethyl 5-n-propyl-1-[(2'-carboxybiphenyl-4-yl)methyl]pyrrole-2-carboxylate] registered an IC50 at AII receptor of more than 3000 nM. The minimal effective dose with Renal Hypertensive Rats (setting [1]) and in the data set on Renal Hypertensive Rats (setting [2]) was more than 30 mg/kg throughout.
In turn, `CCCCc1cn(Cc2ccc(-c3ccccc3-c3nn[nH]n3)cc2)nn1` [Example 3, 4-Butyl-1-[2'-(1H-tetrazol-5-yl)-biphenyl-4-yl]methyl-1,2,3-triazoles] displayed an IC50 at AII receptor of 6000 nM. The minimal effective dose with Renal Hypertensive Rats (setting [1]) is not above 10 mg/kg; in the data set on Renal Hypertensive Rats (setting [2]), not above 100 mg/kg.
The corresponding values for `C=CCCc1cc(COC)nn1Cc1ccc(-c2ccccc2C(=O)O)cc1` [Example 172, 3-Methoxymethyl-5-but-3-enyl-1-[(2'-carboxybiphenyl-4-yl)methyl]-pyrazole] are 720 nM, not above 10 mg/kg and not above 100 mg/kg.
The corresponding values for `CCCCc1nncn1Cc1ccc(-c2ccccc2C(=O)O)cc1` [Example 68, 3-Butyl-4-[(2'-carboxybiphenyl-4-yl)methyl]-1,2,4-triazole] are 1800 nM, not above 10 mg/kg and more than 100 mg/kg.
In the same order, the values of `CCCc1nnc(COC)n1Cc1ccc(-c2ccccc2C(=O)O)cc1` [Example 69, 3-Methoxymethyl-5-propyl-4-[(2'-carboxybiphenyl-4-yl)methyl]-1,2,4-triazole] are 730 nM, not above 10 mg/kg and more than 100 mg/kg.
As to `CCCCc1cc(COC)n(Cc2ccc(-c3ccccc3C(=O)O)cc2)n1` [Example 170, 5-Methoxymethyl-3-butyl-1-[(2'-carboxybiphenyl-4-yl)methyl]pyrazole], the IC50 at AII receptor came out at 7300 nM. Besides, the minimal effective dose with Renal Hypertensive Rats (setting [1]) is not above 10 mg/kg; in the data set on Renal Hypertensive Rats (setting [2]) it was more than 100 mg/kg.
The corresponding values for `CCCc1cc(COC)nn1Cc1ccc(-c2ccccc2C(=O)O)cc1` [Example 173, 3-Methoxymethyl-5-propyl-1-[(2'-carboxybiphenyl-4-yl)methyl]pyrazole] are 6700 nM, not above 10 mg/kg and not above 100 mg/kg.
`CCCc1nnc(COC)n1Cc1ccc(-c2ccccc2-c2nnn[nH]2)cc1` [Example 72, 3-Methoxymethyl-5-propyl-4-[(2'-(1H-tetrazol-5-yl)biphenyl-4-yl)methyl]-1,2,4-triazole] gave an IC50 on AII receptor of 140 nM. Besides, the minimal effective dose with Renal Hypertensive Rats (setting [1]) was not above 10 mg/kg; with Renal Hypertensive Rats (setting [2]), not above 100 mg/kg.
